Source: ChEMBL document CHEMBL3784934, “N-Alkylpyrido[1',2':1,5]pyrazolo-[4,3-d]pyrimidin-4-amines: A new series of negative allosteric modulators of mGlu1/5 with CNS exposure in rodents” (Bioorg Med Chem Lett, 2016)

Assays:
Type in all cases: functional, cell-based
[1] = target: Metabotropic glutamate receptor 1 (Rattus norvegicus) (UniProt P23385); test: Negative allosteric modulation of rat mGluR1 expressed in HEK293 cells assessed as calcium mobilization at 30 uM by calcium mobilization assay relative to 100 uM glutamate
[2] = target: Metabotropic glutamate receptor 1 (Rattus norvegicus, UniProt P23385); test: Negative allosteric modulation of rat mGluR1 expressed in HEK293 cells assessed as inhibition of glutamate induced calcium mobilization by calcium mobilization assay
[3] = target: Metabotropic glutamate receptor 5 (Rattus norvegicus) (UniProt P31424); test: Negative allosteric modulation of rat mGluR5 expressed in HEK293 cells assessed as calcium mobilization at 30 uM by calcium mobilization assay relative to 100 uM glutamate
[4] = target: Metabotropic glutamate receptor 5 (Rattus norvegicus, UniProt P31424); test: Negative allosteric modulation of rat mGluR5 expressed in HEK293 cells assessed as inhibition of glutamate induced calcium mobilization by calcium mobilization assay
Sequence of Metabotropic glutamate receptor 5 (P31424 whole entry): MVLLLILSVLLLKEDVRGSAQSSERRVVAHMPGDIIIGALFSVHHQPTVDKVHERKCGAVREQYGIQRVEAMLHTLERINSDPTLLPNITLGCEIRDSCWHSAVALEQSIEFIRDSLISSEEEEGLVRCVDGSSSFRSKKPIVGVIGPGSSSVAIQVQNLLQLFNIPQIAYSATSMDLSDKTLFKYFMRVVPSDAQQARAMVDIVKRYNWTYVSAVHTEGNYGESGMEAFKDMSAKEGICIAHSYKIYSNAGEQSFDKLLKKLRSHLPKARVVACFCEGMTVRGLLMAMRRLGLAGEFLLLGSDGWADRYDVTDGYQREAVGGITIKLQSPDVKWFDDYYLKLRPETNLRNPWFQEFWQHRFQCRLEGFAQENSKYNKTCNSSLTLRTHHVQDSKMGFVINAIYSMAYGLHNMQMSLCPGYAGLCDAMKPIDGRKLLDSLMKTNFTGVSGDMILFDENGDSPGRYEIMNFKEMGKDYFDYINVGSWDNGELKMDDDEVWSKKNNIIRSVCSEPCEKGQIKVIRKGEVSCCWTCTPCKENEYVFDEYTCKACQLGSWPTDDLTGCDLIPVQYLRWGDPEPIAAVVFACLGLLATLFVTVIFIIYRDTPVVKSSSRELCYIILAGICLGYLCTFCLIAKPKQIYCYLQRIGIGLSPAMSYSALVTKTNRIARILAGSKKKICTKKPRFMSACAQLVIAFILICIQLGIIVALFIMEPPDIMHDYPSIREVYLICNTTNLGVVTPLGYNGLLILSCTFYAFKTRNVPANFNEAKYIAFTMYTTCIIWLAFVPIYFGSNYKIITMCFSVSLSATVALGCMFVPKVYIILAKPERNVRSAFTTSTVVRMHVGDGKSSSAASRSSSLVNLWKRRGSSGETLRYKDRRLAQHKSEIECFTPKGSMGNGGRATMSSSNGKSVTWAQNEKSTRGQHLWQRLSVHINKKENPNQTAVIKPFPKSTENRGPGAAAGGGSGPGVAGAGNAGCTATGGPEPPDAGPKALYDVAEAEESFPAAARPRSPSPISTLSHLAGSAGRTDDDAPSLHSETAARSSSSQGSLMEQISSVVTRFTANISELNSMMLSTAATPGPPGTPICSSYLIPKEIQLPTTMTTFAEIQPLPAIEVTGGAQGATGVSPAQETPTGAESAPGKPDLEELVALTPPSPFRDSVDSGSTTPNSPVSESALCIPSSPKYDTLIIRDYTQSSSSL

Sequence of Metabotropic glutamate receptor 1 (P23385 whole entry): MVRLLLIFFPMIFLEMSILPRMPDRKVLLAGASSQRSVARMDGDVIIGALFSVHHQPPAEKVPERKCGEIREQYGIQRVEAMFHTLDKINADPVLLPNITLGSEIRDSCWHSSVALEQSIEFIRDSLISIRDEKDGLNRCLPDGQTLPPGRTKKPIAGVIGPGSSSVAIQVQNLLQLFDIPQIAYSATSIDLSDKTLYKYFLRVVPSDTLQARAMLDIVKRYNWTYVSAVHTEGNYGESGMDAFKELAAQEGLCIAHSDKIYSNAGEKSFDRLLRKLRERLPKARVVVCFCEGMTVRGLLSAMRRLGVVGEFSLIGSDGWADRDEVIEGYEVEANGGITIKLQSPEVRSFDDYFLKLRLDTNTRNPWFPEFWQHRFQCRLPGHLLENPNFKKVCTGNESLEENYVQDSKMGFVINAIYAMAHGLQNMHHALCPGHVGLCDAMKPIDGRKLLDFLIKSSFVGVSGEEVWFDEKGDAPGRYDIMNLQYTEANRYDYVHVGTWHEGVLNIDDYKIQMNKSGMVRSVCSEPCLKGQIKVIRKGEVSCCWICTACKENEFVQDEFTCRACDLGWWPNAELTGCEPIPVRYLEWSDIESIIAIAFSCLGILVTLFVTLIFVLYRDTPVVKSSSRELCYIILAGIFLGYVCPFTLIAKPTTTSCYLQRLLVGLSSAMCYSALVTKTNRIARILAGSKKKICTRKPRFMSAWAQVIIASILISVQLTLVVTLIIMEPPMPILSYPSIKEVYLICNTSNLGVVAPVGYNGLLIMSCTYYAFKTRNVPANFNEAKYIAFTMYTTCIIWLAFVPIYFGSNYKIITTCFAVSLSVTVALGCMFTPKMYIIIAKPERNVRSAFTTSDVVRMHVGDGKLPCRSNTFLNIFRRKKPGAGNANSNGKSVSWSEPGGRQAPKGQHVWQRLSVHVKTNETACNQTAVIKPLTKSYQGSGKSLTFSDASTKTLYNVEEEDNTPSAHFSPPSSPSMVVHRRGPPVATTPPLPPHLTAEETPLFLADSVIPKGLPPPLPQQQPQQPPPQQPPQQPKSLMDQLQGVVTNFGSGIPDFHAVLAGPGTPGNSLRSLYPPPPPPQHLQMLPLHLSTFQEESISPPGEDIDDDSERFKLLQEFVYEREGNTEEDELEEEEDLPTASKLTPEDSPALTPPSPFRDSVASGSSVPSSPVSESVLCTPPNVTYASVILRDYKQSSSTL
Sequence of Metabotropic glutamate receptor 1 (Rattus norvegicus) (P23385 19-1199 limits assumed): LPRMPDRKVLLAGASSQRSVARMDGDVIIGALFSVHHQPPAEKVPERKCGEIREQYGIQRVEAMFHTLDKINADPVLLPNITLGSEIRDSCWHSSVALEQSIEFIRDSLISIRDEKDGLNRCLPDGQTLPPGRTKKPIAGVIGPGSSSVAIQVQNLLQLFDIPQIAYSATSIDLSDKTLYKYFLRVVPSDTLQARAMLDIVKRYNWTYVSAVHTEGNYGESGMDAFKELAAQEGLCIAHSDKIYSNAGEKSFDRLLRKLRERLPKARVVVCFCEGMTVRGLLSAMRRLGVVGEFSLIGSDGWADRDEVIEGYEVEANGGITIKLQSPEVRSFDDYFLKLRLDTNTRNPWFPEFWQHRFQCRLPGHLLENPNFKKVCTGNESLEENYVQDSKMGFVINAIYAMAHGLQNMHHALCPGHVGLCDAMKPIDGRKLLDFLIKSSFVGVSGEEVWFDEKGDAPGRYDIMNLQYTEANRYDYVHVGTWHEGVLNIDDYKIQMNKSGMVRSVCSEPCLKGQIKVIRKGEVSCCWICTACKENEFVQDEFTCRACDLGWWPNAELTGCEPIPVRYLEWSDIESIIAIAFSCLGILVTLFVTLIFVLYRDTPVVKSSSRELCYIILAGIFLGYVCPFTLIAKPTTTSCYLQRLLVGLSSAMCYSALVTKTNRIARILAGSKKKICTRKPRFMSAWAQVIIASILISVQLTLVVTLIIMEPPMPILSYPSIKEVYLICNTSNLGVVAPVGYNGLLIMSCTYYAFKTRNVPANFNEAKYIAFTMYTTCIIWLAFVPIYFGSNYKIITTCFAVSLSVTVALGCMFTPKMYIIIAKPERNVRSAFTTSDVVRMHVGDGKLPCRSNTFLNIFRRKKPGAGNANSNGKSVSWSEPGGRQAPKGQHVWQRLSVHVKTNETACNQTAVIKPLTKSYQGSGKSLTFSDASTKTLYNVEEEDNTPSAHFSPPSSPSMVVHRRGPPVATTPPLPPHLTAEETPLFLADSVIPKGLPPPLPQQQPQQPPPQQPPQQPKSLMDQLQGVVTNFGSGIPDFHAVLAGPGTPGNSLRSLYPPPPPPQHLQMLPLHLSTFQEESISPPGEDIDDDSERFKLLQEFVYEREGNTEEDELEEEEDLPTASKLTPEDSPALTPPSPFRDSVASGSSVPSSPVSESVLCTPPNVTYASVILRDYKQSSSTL
Sequence of Metabotropic glutamate receptor 5 (Rattus norvegicus) (P31424 21-1203 limits assumed): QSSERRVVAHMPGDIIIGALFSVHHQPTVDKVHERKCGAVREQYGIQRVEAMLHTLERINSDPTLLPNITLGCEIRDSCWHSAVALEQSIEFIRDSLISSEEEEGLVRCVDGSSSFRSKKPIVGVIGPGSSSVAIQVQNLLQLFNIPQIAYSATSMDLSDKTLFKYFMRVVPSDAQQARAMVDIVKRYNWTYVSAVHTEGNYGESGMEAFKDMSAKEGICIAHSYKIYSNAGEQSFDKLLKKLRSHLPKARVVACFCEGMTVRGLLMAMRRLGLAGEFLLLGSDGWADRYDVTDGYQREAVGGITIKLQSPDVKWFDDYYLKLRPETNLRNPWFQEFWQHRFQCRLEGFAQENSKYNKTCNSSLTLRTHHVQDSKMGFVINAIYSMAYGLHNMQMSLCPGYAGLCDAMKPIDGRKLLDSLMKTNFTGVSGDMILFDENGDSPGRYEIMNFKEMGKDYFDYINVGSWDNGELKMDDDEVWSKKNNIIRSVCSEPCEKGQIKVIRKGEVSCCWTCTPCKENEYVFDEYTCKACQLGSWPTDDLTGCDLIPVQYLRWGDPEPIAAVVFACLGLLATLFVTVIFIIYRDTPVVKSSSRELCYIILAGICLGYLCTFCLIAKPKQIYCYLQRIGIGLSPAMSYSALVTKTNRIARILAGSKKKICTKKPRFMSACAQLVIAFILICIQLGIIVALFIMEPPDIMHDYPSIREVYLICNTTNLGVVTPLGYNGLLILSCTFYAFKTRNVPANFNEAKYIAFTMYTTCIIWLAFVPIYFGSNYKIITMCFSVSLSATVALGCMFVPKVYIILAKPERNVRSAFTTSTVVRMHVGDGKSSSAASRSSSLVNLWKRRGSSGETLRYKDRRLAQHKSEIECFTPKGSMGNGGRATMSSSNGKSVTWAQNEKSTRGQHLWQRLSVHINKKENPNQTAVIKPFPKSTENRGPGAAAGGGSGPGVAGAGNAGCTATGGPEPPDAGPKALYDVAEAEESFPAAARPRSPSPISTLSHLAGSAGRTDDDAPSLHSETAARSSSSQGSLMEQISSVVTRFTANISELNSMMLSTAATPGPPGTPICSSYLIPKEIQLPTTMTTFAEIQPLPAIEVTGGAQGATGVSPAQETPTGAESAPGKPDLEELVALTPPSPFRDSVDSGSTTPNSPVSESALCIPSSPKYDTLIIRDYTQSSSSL

Row | Compound | %max [1] [%] | IC50 [2] [µM] | %max [3] [%] | IC50 ([4]; read-out: IC50) [µM] | IC50 ([4]; read-out: pIC50 (converted)) [µM] | pIC50 ([4]; hek293)
1 | c1ccc2c(c1)CC(Nc1ncnc3c1nn1ccccc31)C2 | 2.1 | 0.247 | 17.2 | – | – | –
2 | Cc1nc(N[C@H]2CC[C@H](C)CC2)c2nn3ccccc3c2n1 | 2.6 | – | – | > 30 | > 31.6 | –
3 | FC1(F)CCC(Nc2ncnc3c2nn2ccccc32)CC1 | 39 | > 10 | – | > 30 | > 31.6 | –
4 | C[C@H]1CC[C@H](Nc2nc(N)nc3c2nn2ccccc32)CC1 | 0.58 | 5.6 | – | > 30 | > 31.6 | –
5 | C[C@H](Nc1ncnc2c1nn1ccccc21)C(C)(C)C | -0.2 | – | – | > 30 | > 31.6 | –
6 | c1ccn2nc3c(NC45CC6CC(CC(C6)C4)C5)ncnc3c2c1 | 2.6 | 0.148 | 4.8 | 2.36 | – | –
7 | c1ccn2nc3c(NC4CCCCC4)ncnc3c2c1 | -0.5 | – | – | > 30 | > 31.6 | –
8 | C[C@H]1CC[C@H](Nc2ncnc3c2nn2ccccc32)CC1 | 2 | 0.093 | 2 | 2.27 | – | –
9 | c1ccn2nc3c(NC4C5CC6CC(C5)CC4C6)ncnc3c2c1 (stereo not drawn) | 2.9 | 0.084 | 3.4 | 1.75 | – | –
10 | C[C@@H]1[C@@H](Nc2ncnc3c2nn2ccccc32)C[C@H]2C[C@@H]1C2(C)C | 3.1 | 0.233 | 2.3 | 2.09 | – | –
11 | C[C@H](Nc1ncnc2c1nn1ccccc21)C1CC1 | – | > 30 | – | > 30 | > 31.6 | –
12 | COCCNc1nc(N[C@H]2CC[C@H](C)CC2)c2nn3ccccc3c2n1 | – | > 30 | – | > 30 | > 31.6 | –
13 | C[C@H](Nc1ncnc2c1nn1ccccc21)C1CCCCC1 | 0.9 | – | 61.8 | > 10 | – | < 5
14 | c1ccn2nc3c(NC4CCCCCCC4)ncnc3c2c1 | 1.9 | 0.094 | 1.3 | 3.29 | – | –
15 | C[C@@H](Nc1ncnc2c1nn1ccccc21)C(C)(C)C | 2.2 | – | – | > 30 | > 31.6 | –
